Results on 9 compounds are retold here after patent US20260258084A1, “New Peptides as Selective IL-23 Receptor Antagonists” (Sanofi, priority 2022, published 2026).

The test system of one data set is Pancreatin. Put plainly: Protease stability in simulated intestinal fluid (Pancreatin-SIF, FaSSIF). Format: in vitro ADME. To be noted: 1 μM peptide, 37° C.; for remaining at 1 h, 1 µM: 60 min, read-out: FaSSIF 60 (min), remaining percent of peptide; for remaining at 2 h, 1 µM: 120 min, read-out: FaSSIF 120 (min), remaining percent of peptide; for remaining at 4 h, 1 µM: 240 min, read-out: FaSSIF 240 (min), remaining percent of peptide. The method, boiled down:
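LC-MS/MS peak areas at 0, 60, 120 and 240 min, normalised to time 0 as 100%, give percent remaining. Reactions used 1 μM final peptide at 37° C in pancreatin-SIF (1 mg pancreatin in 10 mL SIF concentrate) and were stopped with ethanol containing 0.1% HCOOH.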

The target of data set [1] is T1, human interleukin-23 receptor (recombinant human IL-23R-Fc chimera) (Homo sapiens, UniProt Q5VWK5).
T1 construct: Fc (IgG Fc fusion)
Put plainly: Human ELISA IL23/IL23R (assay for specific human IL23R antagonists). It counts as binding. The following applies: Table 10; read-out: Human ELISA IL23/IL23R IC50. The gist of the method:
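Competition format: peptide dilutions compete for IL23R-Fc chimera (0.1 μg/ml final, 60 min, room temperature) binding to immobilized human IL23 coated at […] overnight at 4 °C. Read-out is fluorogenic HRP signal from goat anti-hu-IgG1 detecting captured receptor.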
Background: In an ELISA, binding on a coated surface is turned into a signal by an enzyme label.

Data set [2] concerns IL-23 induced STAT3 signaling in HEK-Blue™ IL-23 cells. The experiment in a line: IL-23 induced STAT3 signaling in HEK-Blue IL-23 cells (SEAP reporter). It counts as cell-based. To be noted: human IL23 0.25 ng/ml, read-out: pSTAT3. The gist of the method:
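Secreted SEAP, read at OD 620-655 nm after 45 min QUANTI-Blue development, reports STAT3 activation. Beforehand, cells were exposed to peptide dilutions for 60 min at 37 °C and then to 0.25 ng/ml final human IL-23 overnight, at 10,000 cells/well.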

The next data set has as its system T2, Pepsin.
T2 construct: purchased Merck Millipore
The experiment in a line: Protease stability in simulated gastric fluid (Pepsin-SGF, FaSSGF). Format: in vitro ADME. To be noted: simulated gastric fluid with pepsin (Pepsin-SGF), 60 min, 1 μM peptide, 37° C., read-out: FaSSGF 60 (min), remaining percent of peptide. The gist of the method:
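LCMS/MS peak areas, normalised to the time-0 sample as 100%, give percent remaining. Conditions: 37° C incubation of 1 μM final peptide in simulated gastric fluid with pepsin; ethanol/0.1% HCOOH quench at 0, 60, 120, 240 min.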

The term fraction remaining denotes what is left of the initial amount, in per cent.

pIC50: −log10 of the molar value. Starred links: 1 amine or outer side, 2 acyl side, 3 side chain; linkers in the order of their positions; H or OH if unused. Positions of bridges follow the written chain, without caps; N, C: chain ends. Non-standard residues stand in square brackets, D forms with d. Residues, ends and D or L forms follow the SMILES beside them. *: point of attachment. X5 = CN(C(=O)CCC(=O)[*:3])[C@@H](CS[*:2])C(=O)[*:1]; X6 = O=C(CCC(=O)[*:3])N[C@@H](CS[*:2])C(=O)[*:1]; Trp(7-Me) = Cc1cccc2c(C[C@H](N)C(=O)O)c[nH]c12; X1 = O=C(CCCCN[*:3])N[C@@H](CS[*:2])C(=O)[*:1]; αMeLys(Me2) = CN(C)CCCC[C@](C)(N)C(=O)O; 2Nal = N[C@@H](Cc1ccc2ccccc2c1)C(=O)O; AEF = NCCOc1ccc(C[C@H](N)C(=O)O)cc1; 3Pal = N[C@@H](Cc1cccnc1)C(=O)O; Lys(Me) = CNCCCC[C@H](N)C(=O)O; αMeL = CC(C)C[C@](C)(N)C(=O)O; Suc = O=C(CCC(=O)[*:2])[*:1]; Me2NCH2CH2 = CN(C)CC*; Aib = CC(C)(N)C(=O)O; Ahx = NCCCCCC(=O)O; Ava = NCCCCC(=O)O; Sar = CNCC(=O)O

Consider `CC(=O)N[C@H]1CCCCNC(=O)[C@@H]2CSSC[C@H](NC(=O)[C@H](CC(C)C)NC(=O)[C@H](Cc3c[nH]c4c(C)cccc34)NC1=O)C(=O)N[C@@H](Cc1ccc(OCCN(C)C)cc1)C(=O)N[C@@H](Cc1ccc3ccccc3c1)C(=O)N[C@@](C)(CC(C)C)C(=O)N[C@H](C(=O)N[C@@H](CC(N)=O)C(=O)N[C@@H](Cc1cccnc1)C(=O)N(C)CC(N)=O)CCCCNC(=O)CCC(=O)N2` [compound 158] (Ac-K[Trp(7-Me)]LCY(Me2NCH2CH2)[2Nal][αMeL]KN[3Pal][Sar]-NH2; linker 1-4-8 via X6), for which, in the data set with Pancreatin, the share remaining at 1 h, 1 µM was 80%; the share remaining at 2 h, 1 µM is 73%; the fraction remaining at 4 h, 1 µM was 74%. The pIC50 in data set [1] is 8.71. The pIC50 in data set [2] was 9.41. The fraction remaining at 1 h, 1 µM with Pepsin is 37%.

Consider `C[C@H](NC(=O)[C@@H]1CC(=O)NCCCCCC(=O)N[C@H]2CSSC[C@H](NC(=O)[C@H](CCC(N)=O)NC(=O)[C@H](Cc3c[nH]c4ccccc34)NC(=O)CCCCNC2=O)C(=O)N[C@@H](Cc2ccc(OCCN)cc2)C(=O)N[C@@H](Cc2ccc3ccccc3c2)C(=O)NC(C)(C)C(=O)N1)C(=O)NCC(N)=O` [compound 53] ([Ahx]C[Ava]WQC[AEF][2Nal][Aib]DAG-NH2; disulfide 2-6; lactam N-10), for which, in the data set with Pancreatin, the amount remaining at 1 h, 1 µM is 95%; the share remaining at 2 h, 1 µM is 89%; the share remaining at 4 h, 1 µM was 75%. In data set [1], the pIC50 was 9.15. Also, in data set [2], the pIC50 was 7.22. In the data set with Pepsin, the fraction remaining at 1 h, 1 µM was 0%.

As for `Cc1cccc2c(C[C@@H]3NC(=O)[C@H]([C@@H](C)O)NC(=O)[C@H](CC(N)=O)NC(=O)[C@@H]4CSSC[C@H](NC(=O)[C@H](CCC(N)=O)NC3=O)C(=O)N[C@@H](Cc3ccc(OCCN(C)C)cc3)C(=O)N[C@@H](Cc3ccc5ccccc5c3)C(=O)N[C@@](C)(CCCCN(C)C)C(=O)N[C@H](C(=O)N[C@@H](CC(N)=O)C(=O)N[C@@H](Cc3cccnc3)C(=O)N(C)CC(N)=O)CCCCNC(=O)CCC(=O)N4)c[nH]c12` [compound 152] (CNT[Trp(7-Me)]QCY(Me2NCH2CH2)[2Nal][αMeLys(Me2)]KN[3Pal][Sar]-NH2; disulfide 1-6; linker N-10 via Suc), the amount remaining at 1 h, 1 µM is 100% in the data set on Pancreatin and 99% in the data set with Pepsin. In the data set on Pancreatin, the share remaining at 2 h, 1 µM is 100%. Besides, the amount remaining at 4 h, 1 µM in the data set with Pancreatin was 98%. Also, the pIC50 in data set [1] was 9.42; in data set [2], 10.40.

In the case of `CC(=O)N[C@H]1CCCCNC(=O)[C@@H]2CSSC[C@H](NC(=O)[C@H](CC(C)C)NC(=O)[C@H](Cc3c[nH]c4c(C)cccc34)NC1=O)C(=O)N[C@@H](Cc1ccc(OCCN(C)C)cc1)C(=O)N[C@@H](Cc1ccc3ccccc3c1)C(=O)N[C@@](C)(CC(C)C)C(=O)N[C@H](C(=O)N[C@@H](C)C(=O)N[C@@H](Cc1cccnc1)C(=O)N(C)CC(N)=O)CCCCN(C)C(=O)CCC(=O)N2C` [compound 70] (Ac-K[Trp(7-Me)]LCY(Me2NCH2CH2)[2Nal][αMeL][Lys(Me)]A[3Pal][Sar]-NH2; linker 1-4-8 via X5), in the data set on Pancreatin, the share remaining at 1 h, 1 µM was 94%; the share remaining at 2 h, 1 µM is 90%; the share remaining at 4 h, 1 µM was 87%. For the same compound, the pIC50 in data set [1] is 8.68. Further, in data set [2], the pIC50 is 8.40. In addition, the fraction remaining at 1 h, 1 µM in the data set on Pepsin was 78%.

As to `CC(=O)NCCCC[C@@H]1NC(=O)[C@H](Cc2c[nH]c3c(C)cccc23)NC(=O)[C@@H](NC(C)=O)CCCCNC(=O)[C@@H]2CSSC[C@H](NC1=O)C(=O)N[C@@H](Cc1ccc(OCCN(C)C)cc1)C(=O)N[C@@H](Cc1ccc3ccccc3c1)C(=O)N[C@@](C)(CC(C)C)C(=O)N[C@H](C(=O)N[C@@H](CC(N)=O)C(=O)N[C@@H](Cc1cccnc1)C(=O)N(C)CC(N)=O)CCCCNC(=O)CCC(=O)N2` [compound 106] (Ac-K[Trp(7-Me)]K(Ac)CY(Me2NCH2CH2)[2Nal][αMeL]KN[3Pal][Sar]-NH2; linker 1-4-8 via X6), in the data set on Pancreatin, the fraction remaining at 1 h, 1 µM was 76%; the fraction remaining at 2 h, 1 µM is 76%; the amount remaining at 4 h, 1 µM is 74%. In addition, in data set [1], the pIC50 was 9.19. Further, in data set [2], the pIC50 is 9.89. Also, in the data set with Pepsin, the fraction remaining at 1 h, 1 µM is 90%.

`CC(=O)N[C@H]1CCCCNC(=O)[C@@H]2CSSC[C@H](NC(=O)[C@H](CC(C)C)NC(=O)[C@H](Cc3c[nH]c4c(C)cccc34)NC1=O)C(=O)N[C@@H](Cc1ccc(OCCN(C)C)cc1)C(=O)N[C@@H](Cc1ccc3ccccc3c1)C(=O)N[C@@](C)(CC(C)C)C(=O)N[C@H](C(=O)N[C@@H](CC(N)=O)C(=O)N[C@@H](Cc1cccnc1)C(=O)N(C)CC(N)=O)CCCCN(C)C(=O)CCC(=O)N2C` [compound 69] (Ac-K[Trp(7-Me)]LCY(Me2NCH2CH2)[2Nal][αMeL][Lys(Me)]N[3Pal][Sar]-NH2; linker 1-4-8 via X5): the share remaining at 1 h, 1 µM in the data set on Pancreatin was 97%; in the data set on Pepsin, 79%. Further, the fraction remaining at 2 h, 1 µM in the data set on Pancreatin was 89%. In addition, the fraction remaining at 4 h, 1 µM with Pancreatin is 83%. In addition, the values for the pIC50 in data set [1] and in data set [2] were 8.66 and 8.51, respectively.

As for `CC(=O)N[C@H]1CCCCNC(=O)[C@@H]2CSSC[C@H](NC(=O)[C@H](CCC(N)=O)NC(=O)[C@H](Cc3c[nH]c4ccccc34)NC1=O)C(=O)N[C@@H](Cc1ccc(OCCN(C)C)cc1)C(=O)N[C@@H](Cc1ccc3ccccc3c1)C(=O)N[C@@](C)(CC(C)C)C(=O)N[C@H](C(=O)N[C@@H](CC(N)=O)C(=O)NCC(N)=O)CCC(=O)NCCCCC(=O)N2` [compound 31] (Ac-KWQCY(Me2NCH2CH2)[2Nal][αMeL]ENG-NH2; linker 1-4-8 via X1), the share remaining at 1 h, 1 µM in the data set with Pancreatin was 83%; in the data set on Pepsin, 99%. Also, the amount remaining at 2 h, 1 µM in the data set on Pancreatin was 72%. Besides, the amount remaining at 4 h, 1 µM in the data set with Pancreatin was 55%. The figures for the pIC50 in data set [1] and in data set [2] were 9.44 and 8.28, respectively.

Turning to `Cc1cccc2c(C[C@@H]3NC(=O)[C@H]([C@@H](C)O)NC(=O)[C@H](CC(N)=O)NC(=O)[C@@H]4CSSC[C@H](NC(=O)[C@H](CCC(N)=O)NC3=O)C(=O)N[C@@H](Cc3ccc(OCCN(C)C)cc3)C(=O)N[C@@H](Cc3ccc5ccccc5c3)C(=O)NC(C)(C)C(=O)N[C@H](C(=O)N[C@@H](CO)C(=O)N[C@@H](Cc3c[nH]cn3)C(N)=O)CCC(=O)NCCCCC(=O)N4)c[nH]c12` [compound 43] ([Ava]CNT[Trp(7-Me)]QCY(Me2NCH2CH2)[2Nal][Aib]ESH-NH2; disulfide 2-7; lactam N-11), the fraction remaining at 1 h, 1 µM is 83% in the data set on Pancreatin and 100% in the data set on Pepsin. The share remaining at 2 h, 1 µM in the data set on Pancreatin was 72%. Moreover, the amount remaining at 4 h, 1 µM in the data set with Pancreatin is 67%. In addition, the values for the pIC50 in data set [1] and in data set [2] were 9.48 and 8.88, respectively.

Turning to `CC[C@H](C)[C@H](NC(=O)[C@H](CC(N)=O)NC(=O)[C@H](CC(N)=O)NC(=O)[C@@H]1CCC(=O)NCCCCC(=O)N[C@H]2CSSC[C@H](NC(=O)[C@H](CCC(N)=O)NC(=O)[C@H](Cc3c[nH]c4ccccc34)NC(=O)[C@H]([C@@H](C)O)NC(=O)[C@H](CC(N)=O)NC2=O)C(=O)N[C@@H](Cc2ccc(OCCN(C)C)cc2)C(=O)N[C@@H](Cc2ccc3ccccc3c2)C(=O)NC(C)(C)C(=O)N1)C(N)=O` [compound 57] ([Ava]CNTWQCY(Me2NCH2CH2)[2Nal][Aib]ENNI-NH2; disulfide 2-7; lactam N-11), in the data set on Pancreatin, the share remaining at 1 h, 1 µM is 95%; the share remaining at 2 h, 1 µM is 80%; the amount remaining at 4 h, 1 µM was 52%. For the same compound, the pIC50 in data set [1] is 9.64. In data set [2], the pIC50 is 8.26. In the data set on Pepsin, the fraction remaining at 1 h, 1 µM is 61%.
